Assay results taken from patent US6960470B1 (priority 1998, dated 2005).

Tested on: hippocampal slices from wt and Δ9 mutant (PS-1) animals
Assay type: cell-based

Row | Compound | AP5-sensitive potentials during tetanus, difference between wt and Δ9 mutant slices | difference in potentiation between wt and Δ9 mutation slices post-tetanus
1 | AP5 | no statistically significant difference between the two groups | 
2 | CN1C(=O)CN=C(c2ccccc2F)c2cc([N+](=O)[O-])ccc21 [flunitrazepam] |  | no statistically significant difference between the two groups
